Among the data in patent US9169252B2 (BRISTOL-MYERS SQUIBB COMPANY, priority 2014, dated 2015) are IC50 and EC50 values, retold here.

In general, IC50 refers to the concentration needed to halve the response being measured. As usually defined, the EC50 is the concentration that produces a half-maximal response.

One assay addresses IRAK4 (Homo sapiens (Human), UniProt Q9NWZ3). Description: IRAK4 Inhibition Assay. In kind it is biochemical. Conditions: IRAK4 Inhibition Assay; ATP 500 μM; read-out: IRAK4 IC50. An outline of the steps:
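IRAK4 combined with fluorescent substrate and compounds, reacted 60 min at room temperature, stopped with 35 mM EDTA. Substrate and phosphorylated product separated electrophoretically on a Caliper LabChip 3000 mobility-shift reader.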

The subject of assay [1] is TLR2 induced IL-6 in peripheral blood mononuclear cells (PBMCs). Description: PBMC TLR2 Induced IL-6 Assay. In kind it is cell-based, human. As to conditions: Homo sapiens, PBMC, PBMC TLR2 Induced IL-6 Assay; lipoteichoic acid stimulation, IL-6 by ELISA; read-out: Cell EC50. The gist of the method:
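Lipoteichoic acid at 10 µg/ml served as TLR2 stimulus for 5 hours, following a 30-minute compound pretreatment at 37° C. Cells were Ficoll-isolated human PBMCs, 250000 cells/well, cultured in RPMI plus 10% heat-inactivated FCS.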
A general note: An ELISA detects its analyte on a solid surface through an enzyme-linked reagent.

Sequence of IRAK4 (Q9NWZ3 whole entry, species assumed): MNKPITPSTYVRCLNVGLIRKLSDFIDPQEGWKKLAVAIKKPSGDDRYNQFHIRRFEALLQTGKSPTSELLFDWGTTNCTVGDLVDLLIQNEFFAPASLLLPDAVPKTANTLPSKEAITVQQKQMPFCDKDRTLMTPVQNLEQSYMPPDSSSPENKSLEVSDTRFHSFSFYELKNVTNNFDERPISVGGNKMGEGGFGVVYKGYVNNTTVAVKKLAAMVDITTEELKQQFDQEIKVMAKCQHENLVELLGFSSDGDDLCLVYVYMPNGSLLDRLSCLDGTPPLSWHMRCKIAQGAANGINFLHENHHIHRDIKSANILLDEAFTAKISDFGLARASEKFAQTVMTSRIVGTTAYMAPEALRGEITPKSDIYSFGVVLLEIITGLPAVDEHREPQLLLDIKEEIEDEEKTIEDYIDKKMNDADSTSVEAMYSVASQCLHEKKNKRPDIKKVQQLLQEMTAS

With `CC(C)(O)[C@H](F)CNC(=O)c1cnc(-n2ccc3cc(C#N)cnc32)cc1NC(CO)CF` (stereo partly drawn) [Example 131, 6-(5-Cyano-1H-pyrrolo[2,3-b]pyridin-1-yl)-N—((R)-2-fluoro-3-hydroxy-3-methylbutyl)-4-((1-fluoro-3-hydroxypropan-2-yl)amino)nicotinamide], the IC50 on IRAK4 came to 6.8 nM. For the same compound, the EC50 in assay [1] was 410 nM.
The corresponding values for `CNC(=O)[C@H](F)CNC(=O)c1cnc(-n2ccc3cc(C#N)cnc32)cc1NC1CC1` [Example 132, (R)-6-(5-Cyano-1H-pyrrolo[2,3-b]pyridin-1-yl)-4-(cyclopropylamino)-N-(2-fluoro-3-(methylamino)-3-oxopropyl)nicotinamide] are 4.7 nM and 92 nM.
Taken in the same sequence, the figures for `CC(C)Nc1cc(-n2ncc3cc(C#N)cnc32)ncc1C(=O)NC[C@@H](F)C(C)(C)O` [Example 133, (R)-6-(5-Cyano-1H-pyrazolo[3,4-b]pyridin-1-yl)-N-(2-fluoro-3-hydroxy-3-methylbutyl)-4-(isopropylamino)nicotinamide] were 2.6 nM and 120 nM.
Taken in the same sequence, the figures for `CCNc1cc(-n2ncc3cc(C#N)cnc32)ncc1C(=O)NC[C@@H](F)C(C)(C)O` [Example 138, (R)-6-(5-cyano-1H-pyrazolo[3,4-b]pyridin-1-yl)-4-(ethylamino)-N-(2-fluoro-3-hydroxy-3-methylbutyl)nicotinamide] were 6.4 nM and 152 nM.
In the case of `CC(C)(O)[C@H](F)CNC(=O)c1cnc(-n2ncc3cc(C#N)cnc32)cc1NC1CC1` [Example 139, (R)-6-(5-cyano-1H-pyrazolo[3,4-b]pyridin-1-yl)-4-(cyclopropylamino)-N-(2-fluoro-3-hydroxy-3-methylbutyl)nicotinamide], the IC50 at IRAK4 worked out at 2.9 nM. Moreover, the EC50 in assay [1] was found to be 118 nM.
With `CNC(=O)[C@H]1CC[C@H](NC(=O)c2cnc(-n3ncc4cc(C#N)cnc43)cc2NC2CC2)CC1` [Example 140, 6-(5-cyano-1H-pyrazolo[3,4-b]pyridin-1-yl)-4-(cyclopropylamino)-N-((trans)-4-(methylcarbamoyl)cyclohexyl)nicotinamide], at IRAK4, the IC50 worked out at 8.3 nM. For the same compound, the EC50 in assay [1] is 226 nM.
Consider `CC(C)(O)[C@H](F)CNC(=O)c1cnc(-n2ncc3cc(C#N)cnc32)cc1NC1CCOCC1` [Example 141, (R)-6-(5-cyano-1H-pyrazolo[3,4-b]pyridin-1-yl)-N-(2-fluoro-3-hydroxy-3-methylbutyl)-4-((tetrahydro-2H-pyran-4-yl)amino)nicotinamide], for which, at IRAK4, the IC50 was determined as 2.2 nM. For the same compound, the EC50 in assay [1] came to 87 nM.
Taken in the same sequence, the figures for `CC(C)Nc1cc(-n2ncc3cncnc32)ncc1C(=O)NC[C@@H](F)C(C)(C)O` [Example 144, (R)—N-(2-fluoro-3-hydroxy-3-methylbutyl)-4-(isopropylamino)-6-(1H-pyrazolo[3,4-d]pyrimidin-1-yl)nicotinamide] were 6.2 nM and 148 nM.
For the compound `CC(C)(O)[C@H](F)CNC(=O)c1cnc(-n2ncc3cc(C#N)cnc32)cc1NC1CCC1` [Example 145, (R)-6-(5-cyano-1H-pyrazolo[3,4-b]pyridin-1-yl)-4-(cyclobutylamino)-N-(2-fluoro-3-hydroxy-3-methylbutyl)nicotinamide], the IC50 on IRAK4 turned out to be 4.5 nM. The EC50 in assay [1] was 61 nM.
The corresponding values for `CC(C)Nc1cc(-n2ncc3cc(C#N)cnc32)ncc1C(=O)NCCC(C)(C)O` [Example 146, 6-(5-cyano-1H-pyrazolo[3,4-b]pyridin-1-yl)-N-(3-hydroxy-3-methylbutyl)-4-(isopropylamino)nicotinamide] are 6.5 nM and 267 nM.
Taken in the same sequence, the figures for `CC(C)(O)[C@H](F)CNC(=O)c1cnc(-n2ncc3cc(C#N)cnc32)cc1NCC(F)(F)F` [Example 147, (R)-6-(5-cyano-1H-pyrazolo[3,4-b]pyridin-1-yl)-N-(2-fluoro-3-hydroxy-3-methylbutyl)-4-((2,2,2-trifluoroethyl)amino)nicotinamide] were 11.9 nM and 338 nM.
Taken in the same sequence, the figures for `CC(C)Nc1cc(-n2ncc3cc(C#N)cnc32)ncc1C(=O)N[C@H]1CC[C@H](C(C)(C)O)CC1` [Example 148, 6-(5-cyano-1H-pyrazolo[3,4-b]pyridin-1-yl)-N-((trans)-4-(2-hydroxypropan-2-yl)cyclohexyl)-4-(isopropylamino)nicotinamide] were 1.4 nM and 64 nM.
On to `CCC(O)(CC)[C@H](F)CNC(=O)c1cnc(-n2ncc3cncnc32)cc1NC(C)C` [Example 149, (R)—N-(3-ethyl-2-fluoro-3-hydroxypentyl)-4-(isopropylamino)-6-(1H-pyrazolo[3,4-d]pyrimidin-1-yl)nicotinamide], for which, at IRAK4, the IC50 was 9.3 nM. Moreover, in assay [1], the 50% effective concentration (EC50) was 239 nM.
The corresponding values for `CC(C)Nc1cc(-n2ncc3cc(Cl)cnc32)ncc1C(=O)N[C@H]1CC[C@H](C(C)(C)O)CC1` [Example 150, 6-(5-chloro-1H-pyrazolo[3,4-b]pyridin-1-yl)-N-((trans)-4-(2-hydroxypropan-2-yl)cyclohexyl)-4-(isopropylamino)nicotinamide] are 9 nM and 593 nM.
The corresponding values for `CC(C)(O)CCNC(=O)c1cnc(-n2ncc3cc(C#N)cnc32)cc1NC1CCOCC1` [Example 151, 6-(5-cyano-1H-pyrazolo[3,4-b]pyridin-1-yl)-N-(3-hydroxy-3-methylbutyl)-4-((tetrahydro-2H-pyran-4-yl)amino)nicotinamide] are 14.8 nM and 443 nM.
For `CNC(=O)[C@H]1CC[C@H](NC(=O)c2cnc(-n3ncc4cc(Cl)cnc43)cc2NC(C)C)CC1` [Example 152, 6-(5-chloro-1H-pyrazolo[3,4-b]pyridin-1-yl)-4-(isopropylamino)-N-((trans)-4-(methylcarbamoyl)cyclohexyl)nicotinamide], the IC50 on IRAK4 was 5.6 nM. Further, in assay [1], the EC50 came to 294 nM.
The corresponding values for `CC(C)Nc1cc(-n2ncc3cc(Cl)cnc32)ncc1C(=O)NCCN1CCOCC1` [Example 154, 6-(5-chloro-1H-pyrazolo[3,4-b]pyridin-1-yl)-4-(isopropylamino)-N-(2-morpholinoethyl)nicotinamide] are 12 nM and 584 nM.
The corresponding values for `Cc1cnc2c(cnn2-c2cc(NC(C)C)c(C(=O)NC[C@@H](F)C(C)(C)O)cn2)c1` [Example 155, (R)—N-(2-fluoro-3-hydroxy-3-methylbutyl)-4-(isopropylamino)-6-(5-methyl-1H-pyrazolo[3,4-b]pyridin-1-yl)nicotinamide] are 7 nM and 164 nM.
Taken in the same sequence, the figures for `CC(C)(O)[C@H](F)CNC(=O)c1cnc(-n2ncc3cc(F)cnc32)cc1NC1CC1` [Example 156, (R)-4-(cyclopropylamino)-6-(5-fluoro-1H-pyrazolo[3,4-b]pyridin-1-yl)-N-(2-fluoro-3-hydroxy-3-methylbutyl)nicotinamide] were 9.5 nM and 231 nM.
With `CC(C)Nc1cc(-n2ncc3cc(F)cnc32)ncc1C(=O)NC[C@@H](F)C(C)(C)O` [Example 157, (R)-6-(5-fluoro-1H-pyrazolo[3,4-b]pyridin-1-yl)-N-(2-fluoro-3-hydroxy-3-methylbutyl)-4-(isopropylamino) nicotinamide], the IC50 at IRAK4 stood at 5.3 nM. In assay [1], the EC50 came out at 97 nM.
